Data on six compounds can be found in ChEMBL document CHEMBL3822441, “Azadirachta indica triterpenoids promote osteoblast differentiation and mineralization in vitro and in vivo” (2016).

Activity calls are given as the source filed them. No cut-off for these calls is given here.

For assay [1], the system named is Calvarial osteoblast. Briefly: Induction of cell proliferation in rat primary calvarial osteoblasts at 10 nM nM after 48 hrs by BrDU-staining based assay relative to control. Type of assay: functional.
Assay [2] relates to Calvarial osteoblast. Briefly: Osteogenic activity in rat primary calvarial osteoblasts at 10 nM after 48 hrs by ALP-based colorimetric assay. Type of assay: functional, cell-based.
Assay [3] has as its system Calvarial osteoblast. Briefly: Osteogenic activity in rat primary calvarial osteoblasts at 1 pM after 48 hrs by ALP-based colorimetric assay. In kind it is functional, cell-based.
The subject of assay [4] is Rattus norvegicus. Briefly: Osteogenic activity in rat assessed as upregulation of RunX-2 mRNA expression in calvarial osteoblasts at 5 mg/kg/day, sc dosed for 3 days by RT-PCR analysis relative to control. In kind it is functional.
Assay [5] deals with Calvarial osteoblast. The experiment in a line: Induction of mineralization in rat primary calvarial osteoblasts assessed as mineralized nodule formation at 0.001 to 10 nM after 12 days by alizarin red S-staining based assay relative to control. In kind it is functional, cell-based.
Assay [6] deals with Rattus norvegicus. Briefly: Induction of bone formation in rat assessed as increase in mineral appositional rate in calvarial osteoblasts at 5 mg/kg/day, sc dosed for 3 days by dynamic histomorphometric analysis relative to control. In kind it is functional.
The subject of assay [7] is Calvarial osteoblast. The experiment in a line: Induction of cell proliferation in rat primary calvarial osteoblasts at 0.1 to 10 nM after 48 hrs by BrDU-staining based assay relative to control. In kind it is functional.
Assay [8] deals with Rattus norvegicus. The experiment in a line: Osteogenic activity in rat assessed as upregulation of RunX-2 mRNA expression in calvarial osteoblasts at 0.5 mg/kg/day, sc dosed for 3 days by RT-PCR analysis relative to control. Type of assay: functional.
Assay [9] can be described thus: Upregulation of OCN mRNA expression in rat primary calvarial osteoblasts at 100 pM by RT-PCR analysis relative to control. Type of assay: functional, cell-based. As to conditions: Calvarial osteoblast.
Assay [10] has as its system Rattus norvegicus. The experiment in a line: Induction of bone formation in rat assessed as increase in bone-formation rate in calvarial osteoblasts at 5 mg/kg/day, sc dosed for 3 days by dynamic histomorphometric analysis relative to control. In kind it is functional.
The nature of assay [11]: Upregulation of RunX-2 mRNA expression in rat primary calvarial osteoblasts at 100 pM by RT-PCR analysis relative to control. In kind it is functional, cell-based. As to conditions: Calvarial osteoblast.
For assay [12], the system named is Rattus norvegicus. The experiment in a line: Induction of bone formation in rat assessed as increase in mineral appositional rate in calvarial osteoblasts at 1 mg/kg/day, sc dosed for 3 days by dynamic histomorphometric analysis relative to control. In kind it is functional.
Assay [13] relates to Calvarial osteoblast. The experiment in a line: Osteogenic activity in rat primary calvarial osteoblasts at 100 pM after 48 hrs by ALP-based colorimetric assay. Type of assay: functional, cell-based.
Assay [14] relates to Rattus norvegicus. Briefly: Osteogenic activity in rat assessed as upregulation of COL-1 mRNA expression in calvarial osteoblasts at 5 mg/kg/day, sc dosed for 3 days by RT-PCR analysis relative to control. Type of assay: functional.
The nature of assay [15]: Upregulation of ALP mRNA expression in rat primary calvarial osteoblasts at 100 pM by RT-PCR analysis relative to control. In kind it is functional, cell-based. As to conditions: Calvarial osteoblast.
Assay [16] concerns Rattus norvegicus. The experiment in a line: Induction of bone formation in rat assessed as increase in bone-formation rate in calvarial osteoblasts at 10 mg/kg/day, sc dosed for 3 days by dynamic histomorphometric analysis relative to control. In kind it is functional.
In assay [17] the test system is Rattus norvegicus. The experiment in a line: Osteogenic activity in rat assessed as upregulation of ALP mRNA expression in calvarial osteoblasts at 5 mg/kg/day, sc dosed for 3 days by RT-PCR analysis relative to control. In kind it is functional.
In assay [18] the test system is Rattus norvegicus. The experiment in a line: Osteogenic activity in rat assessed as upregulation of RunX-2 mRNA expression in calvarial osteoblasts at 10 mg/kg/day, sc dosed for 3 days by RT-PCR analysis relative to control. In kind it is functional.
Assay [19] deals with Rattus norvegicus. Briefly: Induction of bone formation in rat assessed as increase in bone-formation rate in calvarial osteoblasts at 1 mg/kg/day, sc dosed for 3 days by dynamic histomorphometric analysis relative to control. In kind it is functional.
The test system of assay [20] is Rattus norvegicus. Briefly: Osteogenic activity in rat assessed as upregulation of RunX-2 mRNA expression in calvarial osteoblasts at 1 mg/kg/day, sc dosed for 3 days by RT-PCR analysis relative to control. In kind it is functional.
Assay [21] relates to Rattus norvegicus. The experiment in a line: Osteogenic activity in rat assessed as upregulation of COL-1 mRNA expression in calvarial osteoblasts at 1 mg/kg/day, sc dosed for 3 days by RT-PCR analysis relative to control. Type of assay: functional.
Assay [22] relates to Calvarial osteoblast. The experiment in a line: Induction of mineralization in rat primary calvarial osteoblasts assessed as mineralized nodule formation at 10 to 1000 nM after 12 days by alizarin red S-staining based assay relative to control. Type of assay: functional, cell-based.
A short description of assay [23]: Upregulation of OCN mRNA expression in rat primary calvarial osteoblasts at 10 nM by RT-PCR analysis relative to control. In kind it is functional, cell-based. As to conditions: Calvarial osteoblast.
A short description of assay [24]: Upregulation of ALP mRNA expression in rat primary calvarial osteoblasts at 10 nM […] by RT-PCR analysis relative to control. Type of assay: functional, cell-based. Particulars: Calvarial osteoblast.
Assay [25] can be described thus: Upregulation of RunX-2 mRNA expression in rat primary calvarial osteoblasts at 10 nM by RT-PCR analysis relative to control. As to conditions: Calvarial osteoblast. In kind it is functional, cell-based.

For `C[C@]12CC[C@@H]3c4ccc(O)cc4CC[C@H]3[C@@H]1CC[C@@H]2O`, in the assay on Calvarial osteoblast [1], the result was Active.
For the compound `CC(=O)O[C@@H]1C[C@H]2C(C)(C)C(=O)C=C[C@]2(C)[C@H]2CC[C@@]3(C)[C@H](c4ccoc4)C(=O)[C@H]4O[C@]43[C@@]21C`, in the assay with Calvarial osteoblast [2], the result was Active.
On to `C/C=C(\C)C(=O)O[C@H]1C[C@@H](OC(C)=O)[C@@]2(C)CO[C@H]3[C@H]4O[C@@H]5C[C@@H](c6ccoc6)C(C)=C5[C@@]4(C)[C@H](CC(=O)OC)[C@]1(C)[C@@H]32`, for which, in the assay on Calvarial osteoblast [3], the result was Active.
In the case of `C/C=C(\C)C(=O)O[C@H]1C[C@@H](OC(C)=O)[C@@]2(C(=O)OC)CO[C@H]3[C@@H](O)[C@@](C)([C@@]45O[C@@]4(C)[C@H]4C[C@@H]5O[C@@H]5OC=C[C@@]54O)[C@H]4[C@]1(CO[C@]4(O)C(=O)OC)[C@@H]32`, the “fold change (FC)” value in the assay with Rattus norvegicus [4] came out at 7.5; in the assay on Rattus norvegicus [6], 4; in the assay with Rattus norvegicus [8], 5; in [9] it was 3; with Rattus norvegicus [10] it was 5; in [11] it was 3.5. In addition, the “fold change (FC)” value in the assay on Rattus norvegicus [12] stood at 3.4; with Rattus norvegicus [14], 3.5; in assay [15] it was 4.5; in the assay on Rattus norvegicus [16], 3.2; in the assay with Rattus norvegicus [17], 2; with Rattus norvegicus [18] it was 3. The “fold change (FC)” value in the assay with Rattus norvegicus [19] was determined as 4; in the assay on Rattus norvegicus [20] it was 7; in the assay on Rattus norvegicus [21], 7. In addition, the outcome with Calvarial osteoblast [5], in the assay with Calvarial osteoblast [7] and in the assay with Calvarial osteoblast [13] was Active.
Consider `CC(=O)O[C@@H]1C[C@H]2C(C)(C)C(=O)C=C[C@]2(C)[C@H]2CC[C@]3(C)C(=CC[C@H]3c3ccoc3)[C@@]21C`, for which the outcome in the assay with Calvarial osteoblast [7], in the assay on Calvarial osteoblast [22] and in the assay with Calvarial osteoblast [13] was Active. In addition, the fold change (FC) in assay [9] was 2.3; in assay [11], 2.7. Besides, in assay [15], the result was inactive.
For the compound `C/C=C(\C)C(=O)O[C@@H]1C[C@H](O)[C@]23CO[C@H](C(=O)OC)[C@H]2[C@](C)([C@]24O[C@@]2(C)[C@H]2C[C@@H]4O[C@@H]4OC=C[C@@]42O)[C@H](O)[C@@H]2OC[C@@]1(C(=O)OC)[C@H]23`, the outcome in the assay with Calvarial osteoblast [5], in the assay with Calvarial osteoblast [7] and with Calvarial osteoblast [13] was Active. The fold change (FC) in [23] stood at 2.5; in [24], 2.8; in assay [15], 2.8; in assay [25], 2.5.
